Series [1] deals with murine bone marrow cells. The conditions noted are these: positive control, 20 mg/kg intraperitoneally, male mice.
Source text: The Study purpose was to reveal and quantitatively assess the cytogenetic activity (mutagenicity) of the pharmacologic drugs in the mammalian bone marrow polychromatophils. The method's base is the micronuclei cells microscopic registration.
The experimental used the male and female F1(CBAx C57BI6/J) hybrid mice, two-month age, 18 to 20 grams body weight. Every group included 6 animals. The animals were kept under the 12-hour light regime, with freely available water and food. The single and five fold administration protein-polypeptide complex mutagenicity assessment animal experiments were in compliance with the official protocols. Three experimental series with relevant controls were performed: therapeutic dosage: males, single administration; subtoxic dosage: males, single administration; and therapeutic dosage: males and females, five fold administration. […]
(§1) The bone marrow cells preparations for the micronuclei account were made in conventional manner, in accordance with the "Micronuclear Test Environmental Factors Mutagenicity Assessment in Mammalian Organs Cells" Guidelines. […] 2000 polychromatophils per animal were then analyzed with coded preparations. At the 500 erythrocytes count the polychromatophil to normochromatic erythrocytes ratio was determined.
The test system of series [2] is murine bone marrow cells. The conditions noted are these: positive control, 20 mg/kg intraperitoneally, male mice. The source holds these as a separate data set.
Source text: The Study purpose is to reveal and quantitatively assess the cytogenetic activity (mutagenicity) of the pharmacologic drugs in the mammalian bone marrow polychromatophils. The method's base is the micronuclei cells microscopic registration.
The experimental used the male and female F1(CBAx C57BI6/J) hybrid mice, two-month age, 18 to 20 grams body weight. Every group included 6 animals. The animals were kept under the 12-hour light regime, with freely available water and feed. The single and five fold administration protein-polypeptide complex mutagenicity assessment animal experiments were in compliance with the official protocols. Three experimental series with relevant controls were performed: therapeutic dosage: males, single administration; subtoxic dosage: males, single administration; and therapeutic dosage: males and females, five fold administration. […]
as §1

`O=P1(N(CCCl)CCCl)NCCCO1` (stereo not shown) [cyclophosphamide]: the “higher micronuclei cells vs. control” value in the series on murine bone marrow cells [1] was 19.6 fold. The micronuclei cells in the series with murine bone marrow cells [1] (control 3.16‰) was 62.1 ‰. Besides, in the series on murine bone marrow cells [2], the “higher micronuclei cells count vs. control” value stood at 19.6 fold. For the same compound, in the series on murine bone marrow cells [2] (control 3.16‰), the micronuclei cells count is reported as 62.1 ‰.
